“Also recorded” adds a separate entry of the source.
How the values were obtained:
[1] = Body weight, compound #1 with Cytoxan 28 mg/kg (Example 94); assay type: in vivo, Balb/c mice; design: body weight: unit not given here
Protocol: In another experiment, the CTX treatment was prolonged. Balb/c mice were injected s.c. with 5×10^5 DA-3 tumor cells at day 0. At day 4 when established tumors appeared, tumor-bearing animals were randomized (n=11/gr.) and injected with CTX (at 28 mg/kg) i.v. bolus injections at days 4, 11, and 18. […]

spleen cells = assay: Immunophenotyping on spleen cells, combination with 5 Fluorouracil; assay type: in vivo, C57/BLJ6 mice; details: N = 4
Protocol: (§1) After in vivo drugs analysis, the drugs were evaluated on whole blood for drug stability and toxicity. Furthermore, in vivo/ex vivo analysis was performed on normal and cyclophosphamide immunosuppressed animals plus 5Fu-treated animals. Cell immunophenotyping was performed on mouse-treatedblood and spleen. The following cell surface antigens were analyzed:
(§2) CD3 (all T cells), CD4 (T helper/inducer, binds class II-restricted T cells), CD8a (cytotoxic T cells, CTL adhesion), CD11a (T, B, NK, some stem cells, CTL adhesion anti LFA-1α), MAC-1 (monocyte/macrophage), NK (natural killer cells), Ly5 (B cells), CD45 (all leukocytes, protein tyrosine phosphates), and TCR (T cell receptor).
(§3) C57/BLJ6 mice (6-8 weeks old) were injected daily for 4 consecutive days, sacrificed at day 5 and immunophenotyping was performed on blood and spleen cells.
(§4) The cells were washed twice in PBS, resuspended in 1 ml of RPMI 2% FBS, and incubated for 45 min. on ice with monoclonal antibody. The cells were washed once, fixed with 1% paraformaldehyde, then analyzed using XL Coulter® counter.

[2] = tested on: cytotoxic T lymphocytes, P815 target cells; assay: Cytotoxic T lymphocytes (CTL) assay; assay type: cell-based, C57B1/6 mice and DBA/2 mice; details: Mus musculus, P815, 120 h; at 10^-9 M; read-out: CTL activity, % increase compared to IL2 (100%)
Protocol: (§5) Mixed lymphocyte reaction is an in vitro counterpart of the allograft rejection. Briefly, T cell response was obtained when cells taken from two inbred strains from two outbred individuals of any species were mixed in vitro in culture.
(§6) After 4 days incubation, ^3 H thymidine uptake and cytotoxicity assay (CTL) were performed.
(§7) 3 C57B1/6 mice and 3 DBA/2 mice wre killed and lymphocytes prepared using lympholyte M. The cell concentration was adjusted to 10×10^6 cell/ml for each lysis. DBA/2 cells were irradiated with 3000 Rads. 1 ml of the C57 cells+1 ml of the DBA/2 cells+1 ml of the drug at 3 different concentrations were incubated together for 5 days. Positive control was IL-2 at 15 ng/ml final. After 5 days, the CTL and MLR tests were carried out.
P815 target cells were labelled with Cr^51. After labelling, the cells were resuspended to 5×10^4 cells/ml.
100 μl of target cells+100 μl Of T cells were incubated for 4 hrs and then 100 μl of supernatant was counted using a gamma counter.

[3] = tested on: Fisher male and female rats; assay: In vivo toxicity, repeated intravenous injections (Example 96)
Protocol: The objective of this study was to find the toxic dose of compound #1 after repeated intravenous injections in Fisher male and female rats.
Groups of 3 male rats, and 3 female rats were injected daily i.v. for 5 consecutive days. A first group received 500 mg/kg, a second group 250 mg/kg, and a third group 125 mg/kg. In addition, one male and one female were injected with 1000 mg/kg. An untreated group (male and female) was included in the experiment. For all doses a constant volume of […] was used. Injections were started on day 0 and continued until day 4 (5 days). […] On day 8, the rats were euthanatized and a macroscopic examination of the internal organs was performed.

[4] = tested on: T cell response (mixed lymphocyte reaction); assay: Mixed lymphocyte reaction (MLR) assay; assay type: cell-based, C57B1/6 mice and DBA/2 mice; details: at 10^-9 - 10^-5 M
Protocol: as §5, §6, §7
The cells were resuspended and 100 μl of cell suspension were deposited in each of the 96 wells in the plate, 50 μl of Thymidine at 20 μCi/ml was added for 6 hrs. The cells were then collected and counted using a beta counter.

blood cells = assay: Immunophenotyping on blood cells, combination with cyclophosphamide; assay type: in vivo, C57/BLJ6 mice; details: N = 4
Protocol: as §1, §2, §3, §4

[5] = tested on: B cell activity (LPS), spleen mononuclear leukocytes; assay: Mitogenic proliferation on spleen cell suspension, B (LPS); assay type: cell-based, C57BL-6 mice; details: Mus musculus, Leukocyte, 72 h; at 10^-6 (M)
Description: Mitogenic lectin (mitogen) is a protein which binds and cross-links specific cells surface carbohydrate determinants, and will polyclonally stimulate lymphoid cells. Lymphocyte activation by either antigens or mitogens results in intracellular changes and the subsequent development into a lymphoblast. Mitogenic stimulation of lymphocytes in vitro is believed to mimic the series of events which occur in vivo following their stimulation by specific antigens. PHA, ConA, and PWM, LPS mitogens can be used as a measurement of T cell and B cell activity, respectively.
Briefly, spleen mononuclear leukocytes from C57BL-6 mice were incubated in the presence or absence of mitogens with or without tested drugs. After 72 hours or 5 days, ^3 H thymidine incorporation was recorded as an indication of cell transformation and proliferation.
100 μl of a suspension of 2×10^6 cells/ml (2×10^5 cells/well) were incubated in presence of PHA or ConA or PWM or LPS at the following concentrations:
PHA=0.01% final concentration-0.001%
Cells were incubated in presence or absence of drugs for 72 hours. 0.5 or 1 μCi of tritiated thymidine (^3 H) was added per well the last 18 or 6 hours of incubation respectively. Cells were harvested and counted on a Beta counter.

[6] = 250 mg/kg and 125 mg/kg i.v., 5 days

CN(C)c1ncnc2c1ncn2CCCCCOC(=O)N[C@H](CCCNC(=N)N)C(=O)O [Compound #1, N,N-Dimethylaminopurinyl Pentoxycarbonyl D-Arginine]
body weight ([1]; BCH-1393 50 mg/kg + CTX 28 mg/kg, day 7): 18.2 | body weight ([1]; BCH-1393 50 mg/kg + CTX 28 mg/kg, day 9): 19.1 | body weight ([1]; BCH-1393 50 mg/kg + CTX 28 mg/kg, day 11): 19.0 | body weight ([1]; BCH-1393 50 mg/kg + CTX 28 mg/kg, day 14): 18.6 | body weight ([1]; BCH-1393 50 mg/kg + CTX 28 mg/kg, day 16): 19.5 | body weight ([1]; BCH-1393 50 mg/kg + CTX 28 mg/kg, day 18): 19.3 | body weight ([1]; BCH-1393 50 mg/kg + CTX 28 mg/kg, day 21): 18.9 | body weight ([1]; BCH-1393 50 mg/kg + CTX 28 mg/kg, day 23): 18.8 | body weight ([1]; BCH-1393 50 mg/kg + CTX 28 mg/kg, day 25): 19.5 | body weight ([1]; BCH-1393 50 mg/kg + CTX 28 mg/kg, day 28): 19.4 | body weight ([1]; BCH-1393 50 mg/kg + CTX 28 mg/kg, day 30): 19.3 | body weight ([1]; BCH-1393 50 mg/kg Ip (Days 3-28) + CTX 28 mg/kg Iv (days 4, 11, 18), day 4): 18.7 | body weight loss ([1]; compound #1 50 mg/kg + CTX 28 mg/kg): No significant body weight loss | body weight ([1]; single agent (CTX 28 mg/kg days 4, 11, 18, or BCH-1393 50 mg/kg days 3-28), day 4): 18.6 | body weight ([1]; single agent (CTX 28 mg/kg or BCH-1393 50 mg/kg), day 7): 19.1 | body weight ([1]; single agent (CTX 28 mg/kg or BCH-1393 50 mg/kg), day 9): 19.3 | body weight ([1]; single agent (CTX 28 mg/kg or BCH-1393 50 mg/kg), day 11): 18.9 | body weight ([1]; single agent (CTX 28 mg/kg or BCH-1393 50 mg/kg), day 14): 18.9 | body weight ([1]; single agent (CTX 28 mg/kg or BCH-1393 50 mg/kg), day 16): 19.5 | body weight ([1]; single agent (CTX 28 mg/kg or BCH-1393 50 mg/kg), day 18): 18.9 | body weight ([1]; single agent (CTX 28 mg/kg or BCH-1393 50 mg/kg), day 21): 19.3 | body weight ([1]; single agent (CTX 28 mg/kg or BCH-1393 50 mg/kg), day 23): 19.3 | body weight ([1]; single agent (CTX 28 mg/kg or BCH-1393 50 mg/kg), day 25): 19.5 | body weight ([1]; single agent (CTX 28 mg/kg or BCH-1393 50 mg/kg), day 28): 19.7 | body weight ([1]; single agent (CTX 28 mg/kg or BCH-1393 50 mg/kg), day 30): 20.0 | CD4+ CD45- (mean) (spleen cells; 5 FU + cpd #1 25 mg/kg): 13.19 | NK+ (mean) (spleen cells; 5 FU + cpd #1 25 mg/kg): 3.32 | CD4+ CD45- (mean) (spleen cells; 5 FU + cpd #1 50 mg/kg): 12.06 | NK+ (mean) (spleen cells; 5 FU + cpd #1 50 mg/kg): 3.17 | activation at 0.001 µM [2]: > 80% | abnormal signs [3, 6]: no abnormal signs | growth curves [3, 6]: normal | changes on necropsy ([3]; 250 mg/kg and 125 mg/kg i.v., day 8): No drug induced changes | signs of toxicity ([3]; 250 mg/kg i.v., 5 consecutive days): no signs of toxicity | growth curves ([3]; 500 mg/kg i.v., 5 days): not affected when compared to controls | lethality or effects on growth ([3]; 500 mg/kg i.v., 5 days): no lethality of effects on the growth of the animals | signs of drug effect ([3]; 500 mg/kg i.v., 5 days): twitches of the torso area, tremors of the forepaws and jumping episods; also recorded: some short lasting abnormal signs | duration of signs ([3]; 500 mg/kg i.v., after each of five injections): less than 1 hour | lethality ([3]; 1000 mg/kg i.v.): lethal | signs of drug effect ([3]; 1000 mg/kg i.v.): severe colonic convulsions | time to death ([3]; 1000 mg/kg i.v., 1 male and 1 female, both died): ≤ 10 min | tolerability ([3]; i.v. in Fisher rats): well tolerated | tolerability (conclusion) ([3]; rat, in vivo): appear to be well tolerated | MLR [4]: 1.5 - 4 × | CP8+ CD45+ (mean) (blood cells; CY + cpd #1 25 mg/kg): 13.25 | CP8+ CD45+ (mean) (blood cells; CY + cpd #1 50 mg/kg): 20.8 | fold induction at 1 µM [5]: 2

— US5994361A, “Substituted purinyl derivatives with immunomodulating activity” (priority 1995, dated 1999)
